Patent US20140243197A1, “CARBAMOYLMETHOXY- AND CARBAMOYLMETHYLTHIO- AND CARBAMOYLMETHYLAMINO BENZAMIDES FOR COMBATING INVERTEBRATE PESTS” (BASF SE, priority 2011, published 2014)

Key:
Plutella xylostella = assay: Diamond backmoth leaf-dip test on cabbage leaves, mortality; type: in vivo; details: 3rd instar larvae, cabbage leaves dipped, recorded 72 hours after treatment, read-out: mortality in comparison with untreated controls
Procedure: The active compound was dissolved at the desired concentration in a mixture of 1:1 (vol:vol) distilled water: aceteone. Surfactant (Alkamuls® EL 620) was added at a rate of 0.1% (vol/vol). The test solution was prepared at the day of use.
Leaves of cabbage were dipped in test solution and air-dried. Treated leaves were placed in petri dishes lined with moist filter paper and inoculated with ten 3rd instar larvae. Mortality was recorded 72 hours after treatment. Feeding damages were also recorded using a scale of 0-100%.

Spodoptera eridiana = assay: Southern armyworm foliar spray test on lima bean plants, mortality; type: in vivo; details: 96 h, 2nd instar larvae, lima bean foliage sprayed, assessed 4 days after treatment, read-out: mortality in comparison with untreated controls
Procedure: The active compounds were formulated in cyclohexanone as a 10,000 ppm solution supplied in tubes. The tubes were inserted into an automated electrostatic sprayer equipped with an atomizing nozzle and they served as stock solutions for which lower dilutions were made in 50% acetone:50% water (v/v). A nonionic surfactant (Kinetic) was included in the solution at a volume of 0.01% (v/v).
Lima bean plants (variety Sieva) were grown 2 plants to a pot and selected for treatment at the 1st true leaf stage. Test solutions were sprayed onto the foliage by an automated electrostatic plant sprayer equipped with an atomizing spray nozzle. The plants were dried in the sprayer fume hood and then removed from the sprayer. Each pot was placed into perforated plastic bags with a zip closure. About 10 to 11 armyworm larvae were placed into the bag and the bags zipped closed. Test plants were maintained in a growth room at about 25° C. and about 20-40% relative humidity for 4 days, avoiding direct exposure to fluorescent light (24 hour photoperiod) to prevent trapping of heat inside the bags. Mortality and reduced feeding were assessed 4 days after treatment, compared to untreated control plants.

## CNC(=O)CONC(=O)c1cc(Cl)cc(C)c1NC(=O)c1cnn(CC(F)(F)F)c1-c1ncccc1Cl [Compound 1-1, 5-(3-chloro-pyridin-2-yl)-1-(2,2,2-trifluoro-ethyl)-1H-pyrazole-4-carboxylic acid (4-chloro-2-methyl-6-methylcarbamoylmethoxycarbamoyl-phenyl)-amide]
Plutella xylostella
  mortality at 500 ppm: 100%
Spodoptera eridiana
  mortality at 500 ppm: 100%
